The values below come from patent US9434687B2, “Detection of synthetic cannabinoids” (priority 2011, dated 2016).

Type in all cases: binding, sheep
In test [1] the test system is IgG fraction of antiserum raised to Immunogen I. How it is done:
(§1) An aqueous solution of each immunogen was formulated with Freund's Complete Adjuvant (FCA) to form an emulsion consisting of 2 mg/ml*immunogen in 50% (v/v) FCA. Three sheep were immunised with this emulsion (1° immunisation), 0.25 ml being intramuscularly injected at each of four sites in the flank of each animal. Subsequent immunizations (boosts) contained 1 mg/ml*immunogen. All boosts were emulsified in 50% (v/v) Freund's Incomplete Adjuvant (FIA) and were administered in the same manner as the 1° immunisation, at monthly intervals. Blood sampling took place 7 to 14 days after each boost. *The general procedure for immunogen administration is outlined above, however, it was necessary to deviate from this protocol in some cases, due to reduced immunogen concentrations (Immunogens II, IV, VII and VIII) and/or amount available (Immunogen VIII). Any deviations from the protocol described are outlined in Table 5 below and highlighted in bold.
(§2) The wells of an enhanced binding 96 well polystyrene microtiter plate were coated with IgG fraction of antiserum raised to Immunogen I or II, diluted in 10 mM Tris, pH8.5 (125 μl/well). The appropriate antibody coating dilution was determined using standard ELISA checkerboard techniques. The plate was incubated overnight at 4° C., washed 4 times over 10 minutes with Tris buffered saline containing Tween 20 (TBST) and tapped dry. Standard solutions (JWH-018 for Immunogens I and II) were applied at 0, 0.625, 1.25, 2.5, 5, 10, 20 and 40 ng/ml and 50 μl of each was added to the appropriate wells. 75 μl of conjugate (appropriate hapten-HRP) diluted in Tris buffer (pH 7.2) containing EDTA, D-mannitol, sucrose, thimerosal and BSA, was added to each of the wells. The appropriate dilution of conjugate was also determined using standard ELISA checkerboard techniques. The plate was incubated at 25° C. for 1 hour. Excess unbound conjugate was removed by washing 6 times over a 10 minute period with TBST. 125 μl of tetramethylbenzidine (TMB) substrate solution was added to each well of the plate that was then incubated for 20 minutes in the dark at room temperature. The reaction was terminated by addition of 125 μl 0.2M H2SO4 to each well. The absorbance was then measured at 450 nm using a microtiter plate reader. The data are inputted to a computer program called ‘KC Junior’. It is a 4 parameter fit curve and allow the calculation of concentrations between the standard runs. This program is used to calculate the IC50s by dividing the 0 ng/ml OD value by 2 and obtaining the concentration value from the curve for this OD.
In a similar manner to that described above, the wells of a 96-well microtiter plate were coated with the IgG fraction of the antiserum raised to Immunogens I or II. Standard solutions (JWH-018 for Immunogen I and II) were applied at 0, 0.625, 1.25, 2.5, 5, 10, 20 and 40 ng/ml and conjugate was employed as detection reagent.
(§3) The data set out in Tables 7-10 are generated using antibodies raised against the indicated Immunogens in a competitive binding assay with the indicated tracers, using the indicated standards
(§4) In order to determine the specificity of the competitive ELISAs, standard solutions of a range of structurally similar synthetic cannabinoids and their metabolites were prepared in TBST.
(§5) Using the calibration curves generated and employing a single level of cross reactants, these were used to determine the cross-reactivity of each immunoassay with these substances. These are the standards used for the IC50 and cross-reactivity data generation: […]

Test [2] relates to IgG fraction of antiserum raised to Immunogen IV. Here is the method: as §1, §2
(§6) In a similar manner to that described above, the wells of a 96-well microtiter plate were coated with the IgG fraction of the antiserum raised to Immunogens IV, VII or VIII. Standard solutions (JWH-018 for Immunogens IV and VIII, JWH-015 for Immunogen VII) were prepared in TBST at 0, 1.25, 2.5, 5, 10, 20, 40 and 80 ng/ml and conjugate was employed as detection reagent.
as §3, §4, §5

The subject of test [3] is IgG fraction of antiserum raised to Immunogen VIII. Here is the method: as §1, §2, §6, §3, §4, §5
Test [4] relates to IgG fraction of antiserum raised to Immunogen VII. How it is done: as §1, §2, §6, §3, §4, §5
Setting [5] is: Antibody to Immunogen I, cross-reactants at 100 ng/ml, 1000 ng/ml, standard JWH-018.
The mark [6] stands for this setting: Antibody to Immunogen IV, cross-reactants at 100 ng/ml, 1000 ng/ml, standard JWH-018.
Setting [7] is: Antibody to Immunogen VIII, cross-reactants at 100 ng/ml, 1000 ng/ml, standard JWH-018.
Setting [8] is: Antibody to Immunogen VII, cross-reactants at 100 ng/ml, 1000 ng/ml, standard JWH-015.

Counter-ions that a name gives are not always drawn. Like-named read-outs stand apart in the source and are kept apart here.

Turning to `CCCCCCC(C)(C)c1ccc([C@@H]2C[C@H](O)CC[C@H]2CCCO)c(O)c1` (racemic) [(+−)-CP 55,940], the “% B/B0” value in test [1] (setting [5]) worked out at 100.61%; in test [2] (setting [6]), 94.60%; in test [3] (setting [7]), 100.25%; in test [4] (setting [8]), 100.25%.
`CCCCCn1cc(C(=O)Cc2ccccc2C)c2ccccc21` [JWH-251]: the “% B/B0” value turned out to be 68.01% in test [1] (setting [5]), 42.02% in test [2] (setting [6]), 9.12% in test [3] (setting [7]) and 96.74% in test [4] (setting [8]).
`COc1ccccc1CC(=O)c1cn(CCCCCO)c2ccccc12` [JWH 250 N-(5-hydroxypentyl) metabolite]: the “% B/B0” value was 75.47% in test [1] (setting [5]), 76.22% in test [2] (setting [6]), 42.79% in test [3] (setting [7]) and 96.13% in test [4] (setting [8]).
The corresponding values for `CCCCCn1cc(C(=O)c2ccc(CCC)c3ccccc23)c2ccccc21` [JWH-182] are 107.08%, 12.83%, 30.65% and 98.40%.
Taken in the same sequence, the figures for `CCCCCn1cc(C(=O)c2ccc(OC)cc2)c2ccccc21` [RCS-4] were 80.46%, 19.21%, 5.93% and 93.51%.
As for `CCCCCn1cc(C(=O)Cc2ccccc2OC)c2ccccc21` [JWH-250], the “% B/B0” value in test [1] (setting [5]) stood at 78.94%; in test [2] (setting [6]), 41.08%; in test [3] (setting [7]) it was 9.40%; in test [4] (setting [8]) it was 97.23%.
`CCCCn1c(O)c(C(=O)c2cccc3ccccc23)c2ccccc21` [2-OH JWH-073, JWH-073 2-hydroxyindole metabolite]: the “% B/B0” value in test [1] (setting [5]) worked out at 89.62%; in test [2] (setting [6]), 89.63%; in test [3] (setting [7]) it was 93.42%; in test [4] (setting [8]), 92.65%.
The corresponding values for `NCCc1c[nH]c2ccc(O)cc12` [Serotonin HCl] are 99.65%, 95.40%, 100.36% and 99.83%.
Regarding `CCCCCn1cc(C(=O)Cc2ccc(Cl)cc2)c2ccccc21` [JWH-206, JWH-203 4-chloro isomer], the “% B/B0” value is reported as 75.96% in test [1] (setting [5]), 65.63% in test [2] (setting [6]), 10.55% in test [3] (setting [7]) and 97.17% in test [4] (setting [8]).
Taken in the same sequence, the figures for `CCCCCn1cc(C(=O)Cc2cccc(OC)c2)c2ccccc21` [JWH-302] were 84.66%, 45.67%, 7.97% and 104.92%.
Taken in the same sequence, the figures for `CS(=O)(=O)O.Cc1c(C(=O)c2cccc3ccccc23)c2cccc3c2n1[C@@H](CN1CCOCC1)CO3` [Win 55,212-3 mesylate] were 34.00%, 94.57%, 101.30% and 32.31%.
The corresponding values for `CCCCCn1cc(C(=O)c2cccc(OC)c2)c2ccccc21` [RCS-4 3-methoxy isomer] are 31.19%, 25.65%, 10.95% and 94.72%.
Turning to `COc1ccc(C(=O)c2c(C)n(CCN3CCOCC3)c3cc(I)ccc23)cc1` [AM-630, 6-Iodopravadoline], the “% B/B0” value came out at 91.12% in test [1] (setting [5]), 90.17% in test [2] (setting [6]), 89.88% in test [3] (setting [7]) and 99.88% in test [4] (setting [8]).
Taken in the same sequence, the figures for `CN1CCCCC1Cn1cc(C(=O)c2cc([N+](=O)[O-])ccc2I)c2ccccc21` (centres unmarked) [AM-1241] were 85.61%, 91.38%, 102.46% and 94.96%.
The corresponding values for `COc1ccc(C(=O)c2cn(CCCC(C)O)c3ccccc23)cc1` (centres unmarked) [RCS-4 N-(4-hydroxypentyl) metabolite] are 65.71%, 59.16%, 8.89% and 95.72%.
Taken in the same sequence, the figures for `CCCCCn1cc(C(=O)Cc2ccccc2OC)c2cc(O)ccc21` [JWH 250 5-hydroxyindole metabolite] were 100.75%, 84.05%, 67.19% and 99.88%.
With (−)-CP 55,940, the “% B/B0” value in test [1] (setting [5]) stood at 98.27%; in test [2] (setting [6]) it was 93.02%; in test [3] (setting [7]) it was 97.58%; in test [4] (setting [8]), 101.15%.
In the case of (−)-11-nor-9-Carboxy-delta9-THC, the “% B/B0” value in test [1] is recorded as 100.47%; in test [2] it was 93.08%; in test [3], 103.36%; in test [4], 98.72%.
On to `COc1ccc(C(=O)c2cn(CCCCCC(=O)O)c3ccccc23)cc1` [RCS-4 N-(5-carboxypentyl) metabolite], for which the “% B/B0” value was determined as 77.12% in test [1] (setting [5]), 91.44% in test [2] (setting [6]), 91.97% in test [3] (setting [7]) and 94.00% in test [4] (setting [8]).
The corresponding values for `COc1ccccc1CC(=O)c1cn(CCC2CCCCC2)c2ccccc12` [RCS-8] are 82.65%, 85.50%, 88.79% and 94.57%.
Taken in the same sequence, the figures for `CCCCCn1cc(C(=O)Cc2ccc(OC)cc2)c2ccccc21` [JWH-201] were 77.14%, 59.03%, 8.26% and 100.25%.
Taken in the same sequence, the figures for `CCCCCn1cc(C(=O)c2c(OC)ccc3ccccc23)c2ccccc21` [JWH-081 2-methoxynaphthyl isomer] were 69.58%, 27.67%, 58.20% and 83.43%.
`CCCCCn1cc(C(=O)c2ccc(CC)c3ccccc23)c2ccccc21` [JWH-210]: the “% B/B0” value in test [1] (setting [5]) was found to be 91.18%; in test [2] (setting [6]) it was 5.53%; in test [3] (setting [7]), 16.87%; in test [4] (setting [8]), 96.62%.
With `CCCCn1cc(C(=O)c2ccc(C)c3ccccc23)c2ccccc21` [JWH-073 4-methylnaphthyl analogue], the “% B/B0” value is recorded as 45.54% in test [1] (setting [5]), 7.01% in test [2] (setting [6]), 19.75% in test [3] (setting [7]) and 78.36% in test [4] (setting [8]).
The corresponding values for `CCCCCn1cc(C(=O)c2c(CC)ccc3ccccc23)c2ccccc21` [JWH-210 2-ethylnaphthyl isomer] are 81.37%, 53.97%, 73.51% and 96.13%.
The corresponding values for `CCCCCn1cc(C(=O)c2cccc3ccc(CC)cc23)c2ccccc21` [JWH-210 7-ethylnaphthyl isomer] are 73.11%, 27.07%, 50.90% and 100.55%.
